Drawing on PubChem BioAssay AID330 (DTP/NCI, 2004), this text covers T/C for 25 compounds.

Several values for one entry are separate records, joined by “and”; a condition that tells them apart may be missing. Equal entries are not always repeated. Inconclusive results and toxic doses are left out.

The experiment deals with P388 leukemia ip, CD2F1 mice, survival T/C. In words: NCI In Vivo Anticancer Drug Screen. Data for tumor model P388 Leukemia (intraperitoneal) in CD2F1 (CDF1) mice. The settings on record: endpoint: median survival time, higher = longer survival. Put shortly: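 Mice carrying the transplanted tumor received test compound or vehicle. Survival was recorded in each group, and the value is the treated-group measurement divided by that of the vehicle-treated control group.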

[1] abbreviates: dose: 100.0 mg/kg/injection, schedule: Q01DX009 (ip), vehicle: saline with Tween-80.
Setting [2] is: dose: 200.0 mg/kg/injection, schedule: Q01DX009 (ip), vehicle: saline with Tween-80.
Setting [3] is: dose: 60.0 mg/kg/injection, schedule: Q01DX005 (ip), vehicle: Klucel (hydroxypropylcellulose) (HPC).
Where [4] appears, read: dose: 50.0 mg/kg/injection, schedule: Q01DX009 (ip), vehicle: saline.
The mark [5] stands for this setting: dose: 100.0 mg/kg/injection, schedule: Q01DX009 (ip), vehicle: saline.
[6] abbreviates: dose: 120.0 mg/kg/injection, schedule: Q01DX005 (ip), vehicle: Klucel (hydroxypropylcellulose) (HPC).
Where [7] appears, read: dose: 240.0 mg/kg/injection, schedule: Q01DX005 (ip), vehicle: Klucel (hydroxypropylcellulose) (HPC).
[8] abbreviates: dose: 60.0 mg/kg/injection, schedule: Q01DX005 (ip), vehicle: saline with Tween-80.
The mark [9] stands for this setting: dose: 120.0 mg/kg/injection, schedule: Q01DX005 (ip), vehicle: saline with Tween-80.
[10] abbreviates: dose: 240.0 mg/kg/injection, schedule: Q01DX005 (ip), vehicle: saline with Tween-80.
Where [11] appears, read: dose: 100.0 mg/kg/injection, schedule: Q01DX001 (ip), vehicle: saline with Tween-80.
[12] abbreviates: dose: 200.0 mg/kg/injection, schedule: Q01DX001 (ip), vehicle: saline with Tween-80.
[13] abbreviates: dose: 50.0 mg/kg/injection, schedule: Q01DX005 (ip), vehicle: saline.
The mark [14] stands for this setting: dose: 100.0 mg/kg/injection, schedule: Q01DX005 (ip), vehicle: saline.
Setting [15] is: dose: 200.0 mg/kg/injection, schedule: Q01DX005 (ip), vehicle: saline.
The mark [16] stands for this setting: dose: 200.0 mg/kg/injection, schedule: Q01DX009 (ip), vehicle: saline.

In the case of `CN(C)CCNc1ccc(NCCN(C)C)c2c1C(=O)c1ccccc1C2=O`, the T/C by setting is: (dose: 2.5 mg/kg/injection, schedule: Q01DX009 (ip), vehicle: distilled water + Tween-80) 117 % of control; (dose: 5.0 mg/kg/injection, schedule: Q01DX009 (ip), vehicle: distilled water + Tween-80) 124 % of control; (dose: 20.0 mg/kg/injection, schedule: Q01DX009 (ip), vehicle: acid diluted with saline) 163 % of control; (dose: 20.0 mg/kg/injection, schedule: Q01DX009 (ip), vehicle: distilled water + Tween-80) 159 % of control; (dose: 40.0 mg/kg/injection, schedule: Q01DX009 (ip), vehicle: acid diluted with saline) 202 % of control; (dose: 40.0 mg/kg/injection, schedule: Q01DX009 (ip), vehicle: distilled water + Tween-80) 162 % of control.

Regarding `COc1ccc(C(=O)c2ccccc2)cc1OC`, the T/C was 100 % of control (dose: 25.0 mg/kg/injection, schedule: Q01DX009 (ip), vehicle: saline with Tween-80); 100 % of control (dose: 50.0 mg/kg/injection, schedule: Q01DX009 (ip), vehicle: saline with Tween-80); 98 % of control under setting [1]; 98 % of control under setting [2].

`C/C=C/C(C#N)O[Si](C)(C)C` (stereo not given): the T/C is 97 % of control (dose: 3.75 mg/kg/injection, schedule: Q01DX005 (ip), vehicle: saline); 113 % of control (dose: 7.5 mg/kg/injection, schedule: Q01DX005 (ip), vehicle: saline); 99 % of control (dose: 15.0 mg/kg/injection, schedule: Q01DX005 (ip), vehicle: saline).

With `O=C(N1CCCCC1Cc1ccccc1)C(Cl)(Cl)Cl` (stereo not given), the T/C (dose: 30.0 mg/kg/injection, schedule: Q01DX005 (ip), vehicle: Klucel (hydroxypropylcellulose) (HPC)) is 101 % of control and the T/C under setting [3] was 101 % of control.

Regarding `CC(C)[N+](C)(C)CC(O)COc1cccc2ccccc12` (stereo not given), under setting [4], the T/C was 104 % of control.

`O=c1cccc(O)[nH]1`: the T/C was 109 % of control and 94 % of control under setting [4]; 100 % of control and 93 % of control under setting [5].

Take `Cc1c(C(=O)NCCN(C)C)n(C)c(=O)c2ccccc12`: the T/C (dose: 60.0 mg/kg/injection, schedule: Q01DX005 (ip), vehicle: saline) was 98 % of control; the T/C (dose: 120.0 mg/kg/injection, schedule: Q01DX005 (ip), vehicle: saline) was 93 % of control; the T/C (dose: 240.0 mg/kg/injection, schedule: Q01DX005 (ip), vehicle: saline) is 94 % of control.

With `CCn1ncc2c1nc(-c1ccccc1)c[n+]2[O-]`, the T/C is 92 % of control under setting [3], 100 % of control under setting [6] and 101 % of control under setting [7].

For `NS(=O)(=O)c1ccc(N=CC2C(=O)N(c3ccccc3)N(c3ccccc3)C2=O)cc1`, the T/C (dose: 100.0 mg/kg/injection, schedule: Q01DX001 (ip), vehicle: Klucel (hydroxypropylcellulose) (HPC)) is 87 % of control; the T/C (dose: 200.0 mg/kg/injection, schedule: Q01DX001 (ip), vehicle: Klucel (hydroxypropylcellulose) (HPC)) is 89 % of control; the T/C (dose: 400.0 mg/kg/injection, schedule: Q01DX001 (ip), vehicle: Klucel (hydroxypropylcellulose) (HPC)) is 92 % of control.

As to `CCCCC(C)(CCN)CCCC`, the T/C by setting is: (dose: 25.0 mg/kg/injection, schedule: Q01DX009 (ip), vehicle: suspension in saline) 103 % of control; (dose: 50.0 mg/kg/injection, schedule: Q01DX009 (ip), vehicle: suspension in saline) 105 % of control; (dose: 100.0 mg/kg/injection, schedule: Q01DX009 (ip), vehicle: suspension in saline) 106 % of control.

Consider `S=C(SCc1cc(Cl)cc2c1OCOC2)N1CCSCC1`, for which the T/C was 105 % of control under setting [8], 92 % of control under setting [9] and 92 % of control under setting [10].

Regarding `O=C(OC1OC(COCc2ccccc2)C(OCc2ccccc2)C(OCc2ccccc2)C1OCc1ccccc1)c1ccc([N+](=O)[O-])cc1` (stereo not given), the T/C is, setting by setting: under setting [11], 92 % of control; under setting [12], 90 % of control.

On to `Cc1ccc(C(=O)CC2=NC3NN(c4ccccc4)C(=O)C3=C2CC(=O)c2ccc(C)cc2)cc1` (stereo not given), for which the T/C is 94 % of control (dose: 60.0 mg/kg/injection, schedule: Q01DX005 (ip), vehicle: suspension in saline); 98 % of control (dose: 120.0 mg/kg/injection, schedule: Q01DX005 (ip), vehicle: suspension in saline); 102 % of control (dose: 240.0 mg/kg/injection, schedule: Q01DX005 (ip), vehicle: suspension in saline).

Turning to `O=C(CCl)N1CCN(c2ccccn2)CC1`, the T/C reads like this: under setting [8], 109 % of control; under setting [9], 110 % of control; under setting [10], 116 % of control.

In the case of `NCC(=O)NC(CCCN=C(N)N)C(=O)O` (stereo not given), the T/C was 96 % of control under setting [13], 99 % of control under setting [14] and 99 % of control under setting [15].

For the compound `c1ccc(-c2csc3nc(N4CCCCC4)cn23)cc1`, the T/C by setting is: (dose: 100.0 mg/kg/injection, schedule: Q04DX003 (ip), vehicle: saline + Tween-80 + alcohol) 107 % of control; (dose: 200.0 mg/kg/injection, schedule: Q04DX003 (ip), vehicle: saline + Tween-80 + alcohol) 107 % of control.

As to `COc1ccc(C(=O)C(=O)c2ccccc2)cc1`, the T/C reads like this: under setting [3], 105 % of control; under setting [6], 100 % of control; under setting [7], 98 % of control.

In the case of `Fc1cccc(F)n1`, the T/C runs as follows: (dose: 25.0 mg/kg/injection, schedule: Q04DX003 (ip), vehicle: water) 91 % of control; (dose: 50.0 mg/kg/injection, schedule: Q04DX003 (ip), vehicle: water) 103 % of control; (dose: 100.0 mg/kg/injection, schedule: Q04DX003 (ip), vehicle: water) 100 % of control; (dose: 200.0 mg/kg/injection, schedule: Q04DX003 (ip), vehicle: water) 100 % of control; (dose: 400.0 mg/kg/injection, schedule: Q04DX003 (ip), vehicle: water) 104 % of control.

Turning to `CNC(=O)n1cc(Cl)ccc1=O`, the T/C is 100 % of control and 108 % of control under setting [4]; 100 % of control and 107 % of control under setting [5]; 119 % of control under setting [16].

With `NC(=O)C1=C(N)CCC1`, the T/C reads like this: under setting [1], 90 % of control; under setting [2], 90 % of control; (dose: 400.0 mg/kg/injection, schedule: Q01DX009 (ip), vehicle: saline with Tween-80) 100 % of control.

As to `CC(O)C(N)C(=O)O` (stereo not given), the T/C under setting [13] was 104 % of control; the T/C under setting [4] is 103 % of control; the T/C under setting [14] was 100 % of control and 108 % of control; the T/C under setting [5] is 105 % of control; the T/C under setting [15] is 100 % of control and 103 % of control; the T/C under setting [16] was 102 % of control.

Take `CCN1c2ccccc2S(=O)(=O)n2c(Cc3ccccc3)nnc21`: the T/C runs as follows: under setting [11], 93 % of control; under setting [12], 92 % of control.

On to `CC[C@@]1(O)CC(OC2CC(N3CCOCC3)C(O)C(C)O2)c2c(O)c3c(c(O)c2[C@H]1O)C(=O)c1cccc(O)c1C3=O` (stereo not given in full), for which the T/C reads like this: (dose: 0.89 mg/kg/injection, schedule: Q04DX003 (iv), vehicle: saline) 163 % of control; (dose: 1.33 mg/kg/injection, schedule: Q04DX003 (iv), vehicle: saline) 186 % of control; (dose: 2.0 mg/kg/injection, schedule: Q04DX003 (iv), vehicle: saline) 209 % of control; (dose: 3.0 mg/kg/injection, schedule: Q04DX003 (iv), vehicle: saline) 242 % of control; (dose: 4.5 mg/kg/injection, schedule: Q04DX003 (iv), vehicle: saline) 113 % of control.

Consider `CC(O)C(O)C(=O)O` (stereo not given), for which the T/C runs as follows: under setting [4], 94 % of control; under setting [5], 93 % of control; under setting [16], 91 % of control; (dose: 400.0 mg/kg/injection, schedule: Q01DX009 (ip), vehicle: saline) 92 % of control.

For the compound `Cl[Si]1(Cl)CCCC1`, the T/C (dose: 50.0 mg/kg/injection, schedule: Q01DX009 (ip), vehicle: other) is 99 % of control; the T/C (dose: 100.0 mg/kg/injection, schedule: Q01DX009 (ip), vehicle: other) is 100 % of control; the T/C (dose: 200.0 mg/kg/injection, schedule: Q01DX009 (ip), vehicle: other) was 99 % of control.
